Assay results published in paper PMC7735731, “Application of Magnetic Core–Shell Imprinted Nanoconjugates for the Analysis of Hordenine in Human Plasma-Preliminary Data on Pharmacokinetic Study after Oral Administration” (Journal of Agricultural and Food Chemistry, 2020).
≈ marks a conversion by molar mass, not a printed value. Where “and” joins values, the source holds several entries; their conditions need not be identical. Equal entries are not always repeated.

Assays:
[1] = Pharmacokinetic study in healthy volunteers after oral administration of hordenine-rich dietary supplement (plasma, mag-MIP d-SPE, LC-MS/MS); type: in vivo, human
Method: Quantitative analysis was performed using an Agilent 1260 Infinity system (Agilent Technologies, Santa Clara, CA, United States, https://www.agilent.com), equipped with a degasser, an autosampler, and a binary pump coupled to a QTRAP 4000 hybrid triple quadrupole/linear ion trap mass spectrometer (AB Sciex, Framingham, MA, United States, https://sciex.com). The turbo ion spray source was operated in positive mode. The curtain gas, ion source gas 1, ion source gas 2, and collision gas (all high-purity nitrogen) were set at 345, 207, 276 kPa, and “high” instrument units (4.6 × 10^–5 Torr), respectively. The ion spray voltage and source temperature were 5000 V and 600 °C, respectively. The target compounds were analyzed in multiple reaction monitoring mode. The quantitative multiple reaction monitoring transitions, declustering potential (DP) and collision energy (CE) for hordenine and hordenine-d6 were (m/z) 166 > 121 (DP = 61 V, CE = 21 V) and 172 > 121 (DP = 66 V, CE = 19 V), respectively. […] The column was maintained at 40 °C at the flow rate of 0.5 mL/min. The mobile phases consisted of 20 mM aqueous ammonium acetate as eluent A and acetonitrile with 0.2% formic acid as eluent B. The gradient (% B) was as follows: 0 min 10%, 1 min 10%, 3 min 95%, and 5 min 95%. The reequilibration of the column to the initial conditions lasted 1.5 min.
For the optimization of the d-SPE process, a mass of 5 mg of mag-MIP was transferred to an Eppendorf tube together with a volume of 300 μL of untreated plasma sample (or in the optimization process: sample diluted with water or sample pretreated with methanol (1:1, v/v)). A sample of plasma pretreated with methanol was centrifuged (10 000g, 5 min) prior to loading to mag-MIP together with 30 μL of IS (c = 50 μg/L). Next, the tube was put on the vortex to provide contact time with the sorbent for 5 min (in the optimization of loading time, the step lasted 5, 15, 30, or 60 min). Then, the supernatant, separated from the sorbent by an external magnetic field, was discarded and the washing step was carried out by applying water, 300 μL of ultrapure water for 0.5 min on the vortex (or in the optimization process, methanol–water 85:15 v/v). The supernatant was removed in the same manner as described above. Finally, the elution took place by adding 500 μL of 5% ammonium hydroxide in methanol. The elution time was set for 5 min (in the optimization process, the step lasted 5, 15, 30, or 60 min). The elution fraction was separated from the sorbent by the application of an external magnetic field. In each optimized step, the recoveries of hordenine were analyzed. The eluate was evaporated to dryness (40 °C, 5 min), reconstituted in a volume of 70 μL of 20% aqueous methanol, and an aliquot of 10 μL was injected into the LC–MS/MS. Each experiment was performed in triplicate. The recovery was calculated by comparing the mean area response of plasma sample spiked before and after extraction.
Three healthy volunteers (men, aged 25–30 years) were enrolled in this study after obtaining written informed consent. All participants were nonsmokers with body weight no less than 50 kg and body mass index 25.7 ± 3.7 kg/m^2. Their body weights were 80 kg (two volunteers) and 105 kg (one volunteer). Subjects neither consumed alcohol nor received any medication for 2 weeks prior to the start of the study. Hordenine was administered orally in the morning with a dose of 100 mg (in starch capsules) after overnight fasting. Plasma samples of approximately 2 mL were collected (in vials containing di-potassium ethylene diaminetetraacetic acid as an anticoagulant) before and at 20, 30, 45, 60, 75, 90, 120, 180, and 240 min post-dose. After collection, plasma samples were centrifuged at 2000g for 15 min at room temperature and plasma samples were analyzed. […]

[2] = Pharmacokinetic profile of hordenine in plasma after alcohol free beer consumption by one volunteer; type: in vivo, human
Description: It is known that hordenine levels in plasma after beer consumption are low.[10] Thus, to verify the newly proposed analytical method as well as to reveal its applicability, the evaluation of hordenine pharmacokinetics profiles after beer consumption was also investigated. The results are presented in Supporting Information Section S2.
Determination of pharmacokinetic profile after beer consumption
In order to reveal the applicability of new analytical method, the comparative studies of hordenine pharmacokinetic after alcohol free beer consumption was performed. Firstly we confirmed the presence of hordenine in the beverage since no data on hordenine content in alcohol free beer exist. Then the volunteer consumed 0.5 L of beer within 5 min. The blood was collected 10 min., 20 min., 30 min., 45 min., 1 h, 2 h, 4 h, and 6 h after the beginning of beer […]
Regarding alcohol free beer the hordenine content was 1.3 mg/L for Karmi Classic, 1.2 mg/L for Żywiec, 2.5 mg/L for Heineken zero, 2.3 mg/L for Lech. Thus, for further experiments Heineken zero was selected. […]
distribution Vz/F 1810 L. We confirmed the results of Sommer et al. (2020) that the Cmax is too low to directly interact with D2 receptors. One of the explanation of the lower Cl/F and Vz/F than obtained for supplement can be higher bioavailability of hordenine form beer than supplements and/or non linear pharmacokinetics. Thus, further study are needed.
Figure A. Mean plasma concentration-time profile of hordenine after beer consumption by one

[3] = Stability of the analyte in the biological matrix (human plasma) and the extract; type: in vitro ADME; conditions: for stability in extract in the autosampler: 48 h, 4 °C; for stability after short-term storage at room temperature / stability after freeze–thaw cycles: human plasma; for stability after short-term storage at room temperature: 4 h, 21 ± 2 °C; for stability after freeze–thaw cycles: three cycles at −20 °C storage, 25 °C thawing
Method: Selectivity was evaluated using six blank plasma samples, which were evaluated for interference from the matrix components in the determination of hordenine. The accuracy and precision of the method were determined within runs (n = 5) and between runs (n = 15, five replicate samples on three separate runs) using quality control (QC) samples (0.1, 25, and 40 μg/L). Accuracy was expressed as percent relative error of the spiked nominal value, whereas precision was expressed as relative standard deviation (RSD). The linearity range was set between 0.05 and 50 μg/L. Eight point calibration lines (n = 3) were constructed by plotting peak area ratios of each targeted analyte to an area of IS versus the nominal concentration of the analyte. LLOQ was selected to give the signal at least five times higher than the signal of blank samples and satisfactory results of accuracy and precision. LLOQ, QCs, and calibration standards were prepared on blank plasma. The matrix effect was evaluated by analyzing low and high QCs using plasma from six different lots and included hemolyzed and hyperlipidemic plasma samples. Matrix factor (MF) was determined by calculating the ratio of the peak area in the presence of matrix (blank plasma spiked with the analyte post extraction) to the peak area in the absence of matrix (pure solution of the analyte). Additionally, the coefficient of variation (CV) of the IS-normalized MF (expressed as the MF of analyte divided by the MF of IS) was presented. All stability studies were performed at low and high QCs. The autosampler stability was determined after 48 h of extract storage in an autosampler (4 ± 0.5 °C). The freeze and thaw stabilities were determined in a process of three freeze–thaw cycles at −20 ± 2 °C storage temperature and 25 ± 0.5 °C thawing temperature, at least 12 h after freezing. The short-term stability was determined after 4 h of storage at room temperature, 21 ± 2 °C. Carryover was studied by injecting blank plasma sample after calibration standard at 40 μg/L

[4] = Simple allometric scaling of rat t1/2 to human; conditions: from rat t1/2 4.6 ± 1.6 h with t1/2(Human) ∼ 4t1/2(Rat)
Description: However, further studies are required.

[5] = design: method as in PMID 25880244; conditions: rats, cited from earlier work
[6] = target: dopamine D2 receptor; design: method as in PMID 28281694; conditions: cited from earlier work
[7] = weak base; source not given; cited from earlier work
[8] = four volunteers, 1 L of beer with hordenine content 6.30 ± 0.19 mg/L; cited from earlier work
[9] = cited from earlier work
[10] = human plasma, single oral dose 100 mg hordenine, three healthy volunteers, mean
[11] = male, human, plasma, single oral dose 100 mg hordenine, three healthy volunteers, mean

CN(C)CCc1ccc(O)cc1 [hordenine, 4-(2-dimethylaminoethyl)phenol]
AUCt [1, 10]: 1390 µg·min/L | AUCt norm (body weight normalized) [1, 10]: 16.5 µg·min/L/kg | AUC∞ [1, 10]: 1440 µg·min/L | AUC∞ norm (body weight normalized) [1, 10]: 17.1 µg·min/L/kg | concentration at 1 h ([1]; male, human, in vivo, plasma collected at 1 h after administration of 100 mg of hordenine, read-out: calculated concentration in test plasma): 8.7 ng/mL | Cmax [1, 11]: 16.4 ng/mL | MRT inf [1, 11]: 1.88 h | MRT last [1, 11]: 1.7 h | Tmax [1, 11]: 1.08 h | CL/F ([1]; male, human, plasma, single oral dose 100 mg hordenine, three healthy volunteers, mean, read-out: Cl/Fnorm (body weight normalized) (converted)): 51 L/h/kg | Vd/F ([1]; male, human, plasma, single oral dose 100 mg hordenine, three healthy volunteers, mean, read-out: Vz/F (apparent distribution volume)): 6000 L | Vd/F ([1]; male, human, plasma, single oral dose 100 mg hordenine, three healthy volunteers, mean, read-out: Vz/Fnorm (body weight normalized)): 66 L/kg | half-life ([1]; male, human, plasma, single oral dose 100 mg hordenine, three healthy volunteers, mean, read-out: t1/2 (terminal half-life)): 0.9 h | Cl/F (apparent plasma clearance) ([1]; single oral dose 100 mg hordenine, three healthy volunteers, mean): 4700 ± 1700 L/h and 4700 L/h | apparent oral clearance (Cl/F) ([2]; 0.5 L alcohol free beer (hordenine 2.5 mg/L)): 2320 L/h | time to reach Cmax ([2]; 0.5 L alcohol free beer, from the beginning of beer consumption): 25 min | Cmax ([2]; human, plasma, oral, 1.25 mg, 0.5 L alcohol free beer (Heineken zero, hordenine 2.5 mg/L)): 0.4 ng/mL | Vd/F ([2]; human, plasma, oral, 1.25 mg, 0.5 L alcohol free beer (hordenine 2.5 mg/L), read-out: volume of distribution Vz/F): 1810 L | stability in extract in the autosampler ([3]; QC1 (0.1 μg/L)): 94% | stability in extract in the autosampler ([3]; QC3 (40 μg/L)): 110% | stability after short-term storage at room temperature ([3]; QC1 (0.1 μg/L)): 103% | stability after freeze–thaw cycles ([3]; QC1 (0.1 μg/L)): 108% | stability after short-term storage at room temperature ([3]; QC3 (40 μg/L)): 107% | stability after freeze–thaw cycles ([3]; QC3 (40 μg/L)): 104% | estimated t1/2(Human) by allometric scaling [4]: 1.15 ± 0.4 h | t1/2 (hordenine elimination) ([5]; oral administration, dose of 15 mg/kg): 4.6 ± 1.6 h | bioavailability [5]: 66.2% | EC50 [6]: 0.61 mg/L (≈ 3.69 µM) | pKa of the strongest bases [7]: 9.19 | maximum plasma concentrations [8]: 1.98 to 2.85 µg/L | blood–brain barrier crossing [9]: can cross the blood–brain barrier
